According to the supplement of paper PMC3974653:
Counter-ions that a name gives are not always drawn.

Tested on: MTT (mouse pheochromocytoma)
Assay: IC50 of cell viability (ATP content)
Conditions: (24 or 48 h)
Outline: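 MTT mouse pheochromocytoma cells (5 µl of 200,000 cells/ml per well, white 1536-well plates, DMEM with 5% FBS and 1% horse serum) were cultured overnight at 37°C, 5% CO2. They then received 23 nl library compound in DMSO by pintool at 8 concentrations (final 0.5 nM to 46 µM) for 24 or 48 hrs. CellTiter-Glo ATP luminescence was read after 15 minutes. Signals were normalised to positive-control (100% inhibition) and DMSO (0%) wells, and IC50 came from a four-parameter logistic fit.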

Row | Structure (SMILES) | IC50 of cell viability
1 | [H][C@]12CC[N@@]3CC=C(COC(=O)[C@](C)(O)[C@](C)(O)[C@@]([H])(C)C(=O)O1)[C@]23[H] [Monocrotaline] | > 46 µM
2 | Cc1ccc(C2(O)CCN(CCCC(=O)c3ccc(F)cc3)CC2)cc1 [Moperone] | > 46 µM
3 | Cc1ccsc1/C=C\C1=NCCCN1C.O=C(O)[C@@H](O)[C@@H](O)C(=O)O [Morantel tartrate] | > 46 µM
4 | CCOC(=O)Nc1ccc2c(c1)N(C(=O)CCN1CCOCC1)c1ccccc1S2 [Moricizine hydrochloride] | > 46 µM
5 | O=C(NCN1CCOCC1)c1cnccn1 [Morinamida] | > 46 µM
6 | N=C(N)NC(=N)N1CCOCC1 [Moroxidine hydrochloride] | > 46 µM
7 | CN1CC[C@@]23C4OC5=C(O)C=CC(=C25)C[C@@H]1C3\C=C/C4O (some centres undefined) [Morphine] | > 46 µM
8 | O=C1NC2CCCCN2C12CCN(CCCN1c3ccccc3CCc3ccc(Cl)cc31)CC2 (centres undefined) [Mosapramine] | > 46 µM
9 | [Na+].[Na+].CO[C@@]1(NC(=O)[C@H](C([O-])=O)C2=CC=C(O)C=C2)[C@@H]3OC\C(=C(/N3C1=O)C([O-])=O)CSC4=NN=N[N]4C [Moxalactam disodium salt] | > 46 µM
10 | CO/N=C1\C[C@]2(C[C@@H]3C[C@H](CC=C(C)C[C@@H](C)C=CC=C4CO[C@@H]5[C@@H](O)C(C)=C[C@@H](C(=O)O3)[C@]45O)O2)O[C@@H](/C(C)=C/C(C)C)[C@H]1C [Moxidectin] | > 46 µM
11 | CO/N=C1/CC2(CC3CC(CC=C(C)CC(C)C=CC=C4COC5C(O)C(C)=CC(C(=O)O3)C45O)O2)OC(/C(C)=C/C(C)C)C1C (centres undefined) [Moxidectin] | > 46 µM
12 | O.Cl.COC1=C2N(\C=C(C(O)=O)/C(=O)C2=CC(=C1N3C[C@@H]4CCCN[C@@H]4C3)F)C5CC5 [Moxifloxacin Hydrochloride Monohydrate] | > 46 µM
13 | CC(=O)Oc1cc(C(C)C)c(OCCN(C)C)cc1C [Moxisylyte hydrochoride] | > 46 µM
14 | COC1=NC(=NC(=C1N\C2=N\CCN2)Cl)C [Moxonidine] | > 46 µM
15 | CCCCCCC(=O)CCCCCC/C=C/C[C@@H](O)[C@H](O)[C@@](N)(CO)C(=O)O [Myriocin from Mycelia sterilia] | > 46 µM
16 | c1ccc(CNCCNCc2ccccc2)cc1 [N,N'-DIBENZYLETHYLENEDIAMMONIUM DI(ACETATE)] | > 46 µM
17 | C=CC(=O)NCNC(=O)C=C [N,N'-Methylenebis(acrylamide)] | > 46 µM
18 | CCN(CC)CCOc1ccc(Cc2ccccc2)cc1 [N,N-DIETHYL-2-[4-(PHENYLMETHYL)PHENOXY]ETHANAMINE] | > 46 µM
19 | CCN(CC)CCc1c[nH]c2ccccc12 [N,N-Diethyltryptamine] | > 46 µM
20 | C[N+](C)(CCOc1ccccc1)Cc1cccs1.O=S([O-])Oc1ccc(Cl)cc1 [N,N-Dimethyl-N-2-phenoxyethyl-N-2 Äô-thenylammoniu ...] | > 46 µM

Row | Structure (SMILES) | IC50 of cell viability
21 | CN(C)CCc1c[nH]c2ccccc12 [N,N-Dimethyltryptamine] | > 46 µM
22 | CCCN(CCC)CCc1c[nH]c2ccccc12 [N,N-Dipropyltryptamine] | > 46 µM
23 | CCCCC/C=C\C/C=C\C/C=C\C/C=C\CCCC(=O)NCC(=O)O [N-ARACHIDONYLGLYCINE] | > 46 µM
24 | c1ccc2sc(SNC3CCCCC3)nc2c1 [N-CYCLOHEXYLBENZOTHIAZYLSULFENAMIDE] | > 46 µM
25 | CC([C@H](O)c1ccccc1)N(C)C (stereo partly drawn) [N-METHYL (-)EPHEDRINE] | > 46 µM
26 | COC(=O)[C@@H](N)CCCNC(=N)N[N+](=O)[O-] [N-NITRO-ARGININE METHYL ESTER] | > 46 µM
27 | COC1=C2OC3C(O)\C=C/C4[C@H]5CC(=C2[C@@]34CCN5)C=C1 (some centres undefined) [N-Norcodeine] | > 46 µM
28 | OC1\C=C/C2[C@H]3CC4=C5C(=C(O)C=C4)OC1[C@@]25CCN3 (some centres undefined) [N-Normorphine] | > 46 µM
29 | Oc1ccc2c3c1O[C@H]1[C@@H](O)CC[C@@]4(O)C(C2)N(CC2CCC2)CCC314 (some centres undefined) [NALBUPHINE] | > 46 µM
30 | C=C1CC[C@@]2(O)[C@H]3Cc4ccc(O)c5c4[C@@]2(CCN3CC2CC2)[C@H]1O5 [NALMEFENE HYDROCHLORIDE] | > 46 µM
31 | O[C@H]1\C=C/[C@H]2[C@H]3CC4=C5C(=C(O)C=C4)O[C@@H]1[C@@]25CCN3CC=C [NALORPHINE HYDROCHLORIDE] | > 46 µM
32 | C=CC[N+]1(C)CCC23c4c5ccc(O)c4O[C@H]2C(=O)CC[C@@]3(O)C1C5 (some centres undefined) [NALOXONE METHIODIDE] | > 46 µM
33 | C=CCN1CCC23c4c5ccc(O)c4O[C@H]2C(=O)CC[C@@]3(O)C1C5 (some centres undefined) [NALOXONE] | > 46 µM
34 | O=C1CC[C@@]2(O)C3Cc4ccc(O)c5c4C2(CCN3CC2CC2)[C@H]1O5 (some centres undefined) [NALTREXONE] | > 46 µM
35 | CN(C)C(=O)Oc1cccc([N+](C)(C)C)c1 [NEOSTIGMINE] | > 46 µM
36 | CCN(CC)CCOC(=O)c1cccnc1.O.O=C(O)CC(O)(CC(=O)O)C(=O)O [NICAMETATE CITRATE] | > 46 µM
37 | CO[C@]12C[C@@H](COC(=O)c3cncc(Br)c3)CN(C)[C@@H]1Cc1cn(C)c3cccc2c13 [NICERGOLINE] | > 46 µM
38 | Cc1ncc(CNC(=O)N(CCCl)N=O)c(N)n1 [NIMUSTINE] | > 46 µM
39 | O=[N+]([O-])c1ccc([As](=O)(O)O)cc1 [NITARSONE] | > 46 µM
40 | CCN(Cc1ccc(Cl)nc1)/C(=C/[N+](=O)[O-])NC [NITENPYRAM] | > 46 µM

More lines, now with the values ahead:

Row | IC50 of cell viability | Structure (SMILES)
41 | > 46 µM | CN(C)Cc1ccccc1 [N,N-Dimethylbenzylamine]
42 | > 46 µM | NCCNc1cccc2ccccc12.[Cl-].[Cl-].[H+].[H+] [N-(1-Naphthyl)ethylenediamine 2HCl]
43 | > 46 µM | CC(=O)N[C@@H](Cc1ccc(O)cc1)C(=O)O [N-ACETYL-TYROSINE]
44 | > 46 µM | CC(=O)Nc1ccc([S+](=O)([O-])Nc2cc(C)on2)cc1 [N-Acetyl Sulfamethoxazole]
45 | > 46 µM | CC(=O)N[C@@H](C=O)[C@@H](O)[C@H](O)[C@H](O)CO [N-Acetylgalactosamine]
46 | > 46 µM | NC(=O)N[C@@H](CCC(=O)O)C(=O)O [N-CARBAMYL-L-GLUTAMIC ACID]
47 | > 46 µM | O=C1CCC(=O)N1CO [N-HYDROXYMETHYLSUCCINIMIDE]
48 | > 46 µM | CNCc1ccccc1.Cl [N-METHYLBENZYLAMINE HYDROCHLORIDE]
49 | > 46 µM | CN1C(=O)c2ccccc2C1=O [N-Methylphthalimide]
50 | > 46 µM | CC(=O)N[C@@H](CS)C(=O)O [N-acetylcysteine]
51 | > 46 µM | N=C(N)Nc1ccc(C(=O)Oc2ccc3cc(C(=N)N)ccc3c2)cc1 [NAFAMOSTAT MESILATE]
52 | > 46 µM | COc1ccccc1N1CCN(CC(O)COc2cccc3ccccc23)CC1 (centres undefined) [NAFTOPIDIL]
53 | > 46 µM | c1ccc2c(CC3=NCCN3)cccc2c1 [NAPHAZOLINE]
54 | > 46 µM | COc1ccc2cc(C(C)CO)ccc2c1 (centres undefined) [NAPROXOL]
55 | > 46 µM | CC(C)C1CCC(C(=O)NC(Cc2ccccc2)C(=O)O)CC1 (centres undefined) [NATEGLINIDE]
56 | > 46 µM | CCCCC(CC)COS(=O)(=O)[O-] (centres undefined) [NATRII ETASULFAS]
57 | > 46 µM | O=C([O-])/C=C/C(O)c1ccc(Cl)cc1.[Na+] (centres undefined) [NCS-356]

Row | IC50 of cell viability | Structure (SMILES)
58 | > 46 µM | [NH2][Pt]1([NH2])[O]CC(=O)[O]1 [NEDAPLATIN]
59 | > 46 µM | COc1nc(N)nc2c1ncn2C1OC(CO)C(O)C1O (centres undefined) [NELARABINE]
60 | > 46 µM | CCCCc1cc2c(=O)c(C(=O)OC)c[nH]c2cc1OCc1ccccc1 [NEQUINATE]
61 | > 46 µM | C=CC(C)(O)CC/C=C(\C)CCC=C(C)C (centres undefined) [NEROLIDOL]
62 | > 46 µM | CNC(=N)NCCC[C@H](N)C(=O)O [NG-Monomethyl-L-arginine acetate]
63 | > 46 µM | CC(=O)O.CNC(=N)NCCC[C@H](N)C(=O)O [NG-Monomethyl-L-arginine acetate]
64 | > 46 µM | O=C(O)c1cccnc1 [NIACIN]
65 | > 46 µM | COC(=O)\C1=C(/C)N\C(=C(/C1C2=CC=CC(=C2)[N+]([O-])=O)C(=O)OCCN(C)CC3=CC=CC=C3)C (centres undefined) [NICARDIPINE]
66 | > 46 µM | O=C(OC[C@@H]1O[C@@](O)(COC(=O)c2cccnc2)[C@H](OC(=O)c2cccnc2)[C@H]1OC(=O)c1cccnc1)c1cccnc1 [NICOFURANOSUM]
67 | > 46 µM | O=C(NCCc1c[nH]c2ccccc12)c1cccnc1 [NICOTREDOLUM]
68 | > 46 µM | COC(=O)\C1=C(/C)N\C(=C(/C1C2=C(C=CC=C2)[N+]([O-])=O)C(=O)OC)C [NIFEDIPINE]
69 | > 46 µM | O=C(O)c1cccnc1Nc1cccc(C(F)(F)F)c1 [NIFLUMIC ACID]
70 | > 46 µM | O=NCc1ccc([N+](=O)[O-])o1 [NIFUROXIME]
71 | > 46 µM | COC(=O)C1=C(C#N)NC(C)=C(C(=O)OC(C)C)C1c1cccc([N+](=O)[O-])c1 (centres undefined) [NILVADIPINE]
72 | > 46 µM | COCCOC(=O)\C1=C(/C)N\C(=C(/C1C2=CC=CC(=C2)[N+]([O-])=O)C(=O)OC(C)C)C (centres undefined) [NIMODIPINE]
73 | > 46 µM | CNCCC(Oc1ccccc1OC)c1ccccc1 (centres undefined) [NISOXETINE]
74 | > 46 µM | CCOC(=O)\C1=C(/C)N\C(=C(/C1C2=CC=CC(=C2)[N+]([O-])=O)C(=O)OC)C (centres undefined) [NITRENDIPINE]
